# According to US20260217652A1, “PHENYL-SUBSTITUTED HETEROARYL COMPOUND AND PHARMACEUTICAL COMPOSITION COMPRISING SAME, PREPARATION METHOD THEREFOR AND USE THEREOF” (SHANGHAI MEIYUE BIOTECH DEVELOPMENT CO., LTD., priority 2023, published 2026):
# pIC50: −log10 of the molar value.
# Test system: not listed separately
# Test: In vitro liver microsome stability, human
# Type: in vitro ADME
# Conditions: liver microsomes, 0.5 mg/mL microsomes, 1 μM compound, NADPH, 37° C., read-out: Human liver microsomes Half-life T1/2
# Description: (§1) The reference compound used in this experiment was Ketanserin, and the final concentration of microsomes in the experimental system was 0.5 mg/mL. The PBS buffer was a 50 mM K2HPO4 buffer. The concentration of the test compound was 1 μM. The microsomes were added to PBS, and the control/test compounds were respectively added to the corresponding reaction systems, mixed thoroughly, and pre-incubated in a 37° C. water bath for 5 minutes. The reaction was initiated by adding 20 mM NADPH solution under 37° C. water bath conditions (for the No NADPH samples, an equal volume of PBS solution was used as a substitute for the 20 mM NADPH solution). At the reaction time points of 0 min, 10 min, 30 mun, 60 min, and 90 min, 30 μL of reaction samples were taken from each reaction system (for the No NADPH samples, sampling was performed at 0 min and 90 min), and the reaction was immediately terminated by adding 300 μL of the internal standard acetonitrile solution. After centrifugation at 4000 rpm, the supernatant was taken and mixed thoroughly with an equal volume of pure water. The samples at each time point were analyzed by LC-MS/MS (AB Triple Quard 5500) to determine the compound content, and the T1/2 was calculated.
row,SMILES,half-life at 1 μM
1,[2H]C([2H])(Oc1cc(C)n(-c2cc(-c3ccc(F)c([C@@](C)(O)CO)c3F)ncc2C)c(=O)c1Cl)c1ncc(F)cc1F [Compound 145-P1],> 4.66 h
2,[2H]C([2H])(Oc1cc(C)n(-c2cc(-c3cccc([C@@](C)(O)CO)c3F)ncc2C)c(=O)c1Cl)c1ncc(F)cc1F [Compound 146-P1],> 4.66 h

# Continued, values first:
row,half-life at 1 μM,SMILES
1,> 4.66 h,Cc1cnc(-c2ccc(F)c([C@@](C)(O)CO)c2F)c(F)c1-n1c(C)cc(OCc2ncc(F)cc2F)c(Cl)c1=O [Compound 113-P1]
2,> 4.66 h,CNC(=O)C(C)(O)c1cc(-c2ncc(C)c(-n3c(C)cc(OCc4ncc(F)cc4F)c(Cl)c3=O)c2F)ccc1F (stereo not shown) [Compound 124-P2]
3,> 4.66 h,Cc1cnc(-c2ccc(F)c(C(C)(O)C(N)=O)c2)c(F)c1-n1c(C)cc(OCc2ncc(F)cc2F)c(Cl)c1=O (stereo not shown) [Compound 128-P1]

# Test system: not listed separately
# Test: Pharmacokinetic evaluation in mice
# Type: in vivo
# Conditions: mouse, plasma, intravenous injection group 1 mg/kg, read-out: Area under curve AUC0-24 h
# Description: The compound was weighed and dissolved in a mixed solvent of DMAC: Solutol: PBS (1:1:8. After intravenous/gastric administration to mice, whole blood ([…]) was collected at 0.083, 0.25, 0.5, 1, 2, 4, 7, and 24 hours. The samples were anticoagulated with EDTA-K2, immediately centrifuged at 4000 rpm for 5 minutes at 4° C., and the supernatant was frozen in a −80° C. refrigerator. Plasma sample processing: The samples were precipitated with an internal standard-containing CH3CN precipitant, followed by centrifugation at 12700 rpm for 10 min. The supernatant was collected and analyzed by LC-MS/MS (AB Triple Quard 5500) to obtain the plasma drug concentration. The parameters were calculated using a non-compartmental model in Winnolin version 8.1.
row,AUC(0-t),SMILES
1,1580 ng·h/mL,Cc1cnc(-c2cccc(S(C)(=O)=O)c2)c(F)c1-n1c(C)cc(OCc2ncc(F)cc2F)c(Cl)c1=O [Compound 33-P1]

# Same assay, conditions: mouse, plasma, intravenous injection group 1 mg/kg, read-out: Clearance CL (converted)
row,clearance,SMILES
1,10.8 mL/min/kg,Cc1cnc(-c2cccc(S(C)(=O)=O)c2)c(F)c1-n1c(C)cc(OCc2ncc(F)cc2F)c(Cl)c1=O [Compound 33-P1]

# Same assay, conditions: mouse, plasma, intravenous injection group 1 mg/kg, read-out: Half-life T1/2 (converted)
row,half-life,SMILES
1,0.98 h,Cc1cnc(-c2cccc(S(C)(=O)=O)c2)c(F)c1-n1c(C)cc(OCc2ncc(F)cc2F)c(Cl)c1=O [Compound 33-P1]

# Same assay, conditions: mouse, plasma, intravenous injection group 1 mg/kg, read-out: Initial concentration C0
row,C0,SMILES
1,3200 ng/mL,Cc1cnc(-c2cccc(S(C)(=O)=O)c2)c(F)c1-n1c(C)cc(OCc2ncc(F)cc2F)c(Cl)c1=O [Compound 33-P1]

# Same assay, conditions: mouse, plasma, intravenous injection group 1 mg/kg, read-out: Volume of distribution Vd
row,Vd,SMILES
1,0.32 L/kg,Cc1cnc(-c2cccc(S(C)(=O)=O)c2)c(F)c1-n1c(C)cc(OCc2ncc(F)cc2F)c(Cl)c1=O [Compound 33-P1]

# Same assay, conditions: mouse, plasma, po, intragastric administration group 5 mg/kg, read-out: Area under curve AUC0-24 h
row,AUC(0-t),SMILES
1,2800 ng·h/mL,Cc1cnc(-c2cccc(S(C)(=O)=O)c2)c(F)c1-n1c(C)cc(OCc2ncc(F)cc2F)c(Cl)c1=O [Compound 33-P1]

# Same assay, conditions: mouse, plasma, po, intragastric administration group 5 mg/kg, read-out: Bioavailability F %
row,bioavailability,SMILES
1,36.9%,Cc1cnc(-c2cccc(S(C)(=O)=O)c2)c(F)c1-n1c(C)cc(OCc2ncc(F)cc2F)c(Cl)c1=O [Compound 33-P1]

# Same assay, conditions: mouse, plasma, po, intragastric administration group 5 mg/kg, read-out: Half-life T1/2 (converted)
row,half-life,SMILES
1,1.99 h,Cc1cnc(-c2cccc(S(C)(=O)=O)c2)c(F)c1-n1c(C)cc(OCc2ncc(F)cc2F)c(Cl)c1=O [Compound 33-P1]

# Same assay, conditions: mouse, plasma, po, intragastric administration group 5 mg/kg, read-out: Maximum concentration Cmax
row,Cmax,SMILES
1,3670 ng/mL,Cc1cnc(-c2cccc(S(C)(=O)=O)c2)c(F)c1-n1c(C)cc(OCc2ncc(F)cc2F)c(Cl)c1=O [Compound 33-P1]

# Target: T1, p38 MAPK/MK2 (Homo sapiens, UniProt Q16539)
# T1 construct: purchased Carna (p38α); Abcam (MK2) 04-152; 79910
# T1 sequence (Q16539 whole entry): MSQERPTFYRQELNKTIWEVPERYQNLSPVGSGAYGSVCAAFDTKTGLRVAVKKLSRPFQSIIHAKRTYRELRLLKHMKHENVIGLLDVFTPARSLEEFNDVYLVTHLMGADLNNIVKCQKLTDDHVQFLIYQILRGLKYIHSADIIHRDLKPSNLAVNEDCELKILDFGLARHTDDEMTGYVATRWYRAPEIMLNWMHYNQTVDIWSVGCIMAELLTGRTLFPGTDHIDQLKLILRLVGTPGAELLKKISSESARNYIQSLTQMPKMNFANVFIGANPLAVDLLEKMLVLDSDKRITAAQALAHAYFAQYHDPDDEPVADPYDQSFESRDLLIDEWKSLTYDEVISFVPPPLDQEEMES
# T1 sequence (P49137 whole entry partner): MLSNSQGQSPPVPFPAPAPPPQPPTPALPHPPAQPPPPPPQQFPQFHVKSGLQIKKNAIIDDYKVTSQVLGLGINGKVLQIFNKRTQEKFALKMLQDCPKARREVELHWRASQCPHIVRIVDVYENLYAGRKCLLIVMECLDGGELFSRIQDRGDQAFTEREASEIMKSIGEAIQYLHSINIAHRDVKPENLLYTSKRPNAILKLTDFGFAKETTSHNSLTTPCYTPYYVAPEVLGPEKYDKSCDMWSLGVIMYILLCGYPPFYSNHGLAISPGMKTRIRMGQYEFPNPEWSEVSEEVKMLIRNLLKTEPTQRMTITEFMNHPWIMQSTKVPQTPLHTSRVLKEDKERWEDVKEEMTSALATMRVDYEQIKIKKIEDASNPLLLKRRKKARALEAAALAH
# Test: In vitro activity assay of p38 MAPK/MK2 (Z-LYTE kinase assay kit)
# Type: biochemical
# Conditions: active p38α, inactive MK2, Ser/Thr 4; 1-hour reaction at 20° C.
# Description: The inhibitory effect of the compound on p38 MAPK/MK2 was evaluated using the Z-LYTE kinase assay kit (Thermo, PV3177). The test compound was dissolved in DMSO to obtain a 10 mM stock solution and stored at −20° C. for future use. The initial concentration of the compound was […], with 1% DMSO, 5-fold serial dilution, 8 concentrations, and duplicate wells. […] After a 1-hour reaction at 20° C., Development Reagent A diluted 2048-fold was added to each well, followed by incubation at room temperature for 1 hour. The reaction was terminated by adding 5 μL of stop buffer, and the plate was read using a microplate reader (Ex. 400 nm, Em. 445 nm; Ex. 400 nm, Em. 520 nm). The concentration-effect curve was fitted using GraphPad Prism 8 software, and the compound concentration resulting in 50% inhibition, IC50, was calculated.
row,SMILES,pIC50
1,Cc1cnc(-c2cccc(S(C)(=O)=O)c2)c(F)c1-n1c(C)cc(OCc2ncc(F)cc2F)c(Cl)c1=O [Compound 33-P1],10.25
2,[2H]C([2H])(Oc1cc(C)n(-c2cc(-c3ccc(F)c([C@@](C)(O)CO)c3F)ncc2C)c(=O)c1Cl)c1ncc(F)cc1F [Compound 145-P1],8.92
3,[2H]C([2H])(Oc1cc(C)n(-c2cc(-c3cccc([C@@](C)(O)CO)c3F)ncc2C)c(=O)c1Cl)c1ncc(F)cc1F [Compound 146-P1],8.85

# Further lines, results first:
row,pIC50,SMILES
1,10.05,Cc1cnc(-c2ccc(F)c([C@@](C)(O)CO)c2F)c(F)c1-n1c(C)cc(OCc2ncc(F)cc2F)c(Cl)c1=O [Compound 113-P1]
2,10.00,CNC(=O)C(C)(O)c1cc(-c2ncc(C)c(-n3c(C)cc(OCc4ncc(F)cc4F)c(Cl)c3=O)c2F)ccc1F (stereo not shown) [Compound 124-P2]
3,9.82,Cc1cnc(-c2ccc(F)c(C(C)(O)C(N)=O)c2)c(F)c1-n1c(C)cc(OCc2ncc(F)cc2F)c(Cl)c1=O (stereo not shown) [Compound 128-P1]

# Test system: not listed separately
# Test: In vitro liver microsome stability, mouse
# Type: in vitro ADME
# Conditions: liver microsomes, 0.5 mg/mL microsomes, 1 μM compound, NADPH, 37° C., read-out: Mouse liver microsomes Half-life T1/2
# Description: as §1
row,half-life at 1 μM,SMILES
1,> 4.66 h,[2H]C([2H])(Oc1cc(C)n(-c2cc(-c3ccc(F)c([C@@](C)(O)CO)c3F)ncc2C)c(=O)c1Cl)c1ncc(F)cc1F [Compound 145-P1]
2,2.29 h,[2H]C([2H])(Oc1cc(C)n(-c2cc(-c3cccc([C@@](C)(O)CO)c3F)ncc2C)c(=O)c1Cl)c1ncc(F)cc1F [Compound 146-P1]

# Test system: TNF-α in human PBMC cells
# Test: In vitro TNF-α activity assay in human PBMC cell supernatant (LPS, ELISA)
# Type: cell-based
# Conditions: Homo sapiens, PBMC, 24 h, LPS 100 ng/mL, read-out: p38 MAPK/TNF-α IC50
# Description: The inhibitory effect of the compound on TNF-α in the supernatant of human PBMC cells was evaluated using an ELISA detection kit (Beyotime, PI518). The test compound was dissolved in DMSO to obtain a 10 mM stock solution and stored at −20° C. for future use. The initial concentration of the compound was […], followed by 5-fold serial dilution to obtain 6 concentrations. Cells were plated in duplicate, and ELISA was performed in single wells. The final concentration of DMSO was 0.4%. Alternatively, the initial concentration of the compound, dilution factor, number of concentration gradients, and replicates could be adjusted based on the specific screening conditions.
# Fresh human peripheral blood mononuclear cells (PBMCs) (Sailybio) were seeded at a density of 2×10^5 cells per well in a 96-well plate (Corning, 3599), with each well containing 100 μL of RPMI-1640 (Gibco #A1049101)+10% FBS (Gibco, 10099141C), and incubated overnight at 37° C. under 5% CO2. Test compounds were added to the 96-well culture plate at a volume of 25 μL per well. After 1 hour, 5 μL of LPS was added to achieve a final concentration of 100 ng/mL. No LPS and compound were added to the negative control wells, and no compound was added to the positive control wells. The mixture was further incubated for 24 hours at 37° C. under 5% CO2. Subsequently, the cell culture supernatant was collected by centrifugation at 500 rcf for 8 minutes. The concentration of TNF-α was measured according to the operation manual of the ELISA kit. The concentration-effect curve was fitted using GraphPad Prism 8 software, and the compound concentration resulting in 50% inhibition, IC50, was calculated.
row,SMILES,pIC50
1,Cc1cnc(-c2cccc(S(C)(=O)=O)c2)c(F)c1-n1c(C)cc(OCc2ncc(F)cc2F)c(Cl)c1=O [Compound 33-P1],8.53
2,Cc1cnc(-c2ccc(F)c([C@@](C)(O)CO)c2F)c(F)c1-n1c(C)cc(OCc2ncc(F)cc2F)c(Cl)c1=O [Compound 113-P1],8.77
3,[2H]C([2H])(Oc1cc(C)n(-c2cc(-c3ccc(F)c([C@@](C)(O)CO)c3F)ncc2C)c(=O)c1Cl)c1ncc(F)cc1F [Compound 145-P1],8.07
4,[2H]C([2H])(Oc1cc(C)n(-c2cc(-c3cccc([C@@](C)(O)CO)c3F)ncc2C)c(=O)c1Cl)c1ncc(F)cc1F [Compound 146-P1],8.47

# Test system: not listed separately
# Test: In vitro liver microsome stability, rat
# Type: in vitro ADME
# Conditions: liver microsomes, 0.5 mg/mL microsomes, 1 μM compound, NADPH, 37° C., read-out: Rat liver microsomes Half-life T1/2
# Description: as §1
row,half-life at 1 μM,SMILES
1,> 4.66 h,[2H]C([2H])(Oc1cc(C)n(-c2cc(-c3ccc(F)c([C@@](C)(O)CO)c3F)ncc2C)c(=O)c1Cl)c1ncc(F)cc1F [Compound 145-P1]
2,> 4.66 h,[2H]C([2H])(Oc1cc(C)n(-c2cc(-c3cccc([C@@](C)(O)CO)c3F)ncc2C)c(=O)c1Cl)c1ncc(F)cc1F [Compound 146-P1]
